SMILES strings stand for the structures.

Data set [1] deals with HCT-116 and HCT-FET cells. Description: Chemosensitization (caspase-3 cleavage) of colorectal cancer cells to 5′FU. It counts as cell-based, human. The procedure: FIG. 16. […] (A) Ovarian cancer (OVCAR-8 and ES-2) cells were treated with indicated concentrations of Doxorubicin (Doxo) alone or in combination with STL001 for 24 hrs. […] (C) colon cancer (HCT-116 and FET) cells were treated with indicated concentrations of 5′FU alone or in combination with STL001 for 24 hrs.

Data set [2] concerns the target T1, FOXM1 (Homo sapiens, UniProt Q08050).
T1 sequence (Q08050 1-763): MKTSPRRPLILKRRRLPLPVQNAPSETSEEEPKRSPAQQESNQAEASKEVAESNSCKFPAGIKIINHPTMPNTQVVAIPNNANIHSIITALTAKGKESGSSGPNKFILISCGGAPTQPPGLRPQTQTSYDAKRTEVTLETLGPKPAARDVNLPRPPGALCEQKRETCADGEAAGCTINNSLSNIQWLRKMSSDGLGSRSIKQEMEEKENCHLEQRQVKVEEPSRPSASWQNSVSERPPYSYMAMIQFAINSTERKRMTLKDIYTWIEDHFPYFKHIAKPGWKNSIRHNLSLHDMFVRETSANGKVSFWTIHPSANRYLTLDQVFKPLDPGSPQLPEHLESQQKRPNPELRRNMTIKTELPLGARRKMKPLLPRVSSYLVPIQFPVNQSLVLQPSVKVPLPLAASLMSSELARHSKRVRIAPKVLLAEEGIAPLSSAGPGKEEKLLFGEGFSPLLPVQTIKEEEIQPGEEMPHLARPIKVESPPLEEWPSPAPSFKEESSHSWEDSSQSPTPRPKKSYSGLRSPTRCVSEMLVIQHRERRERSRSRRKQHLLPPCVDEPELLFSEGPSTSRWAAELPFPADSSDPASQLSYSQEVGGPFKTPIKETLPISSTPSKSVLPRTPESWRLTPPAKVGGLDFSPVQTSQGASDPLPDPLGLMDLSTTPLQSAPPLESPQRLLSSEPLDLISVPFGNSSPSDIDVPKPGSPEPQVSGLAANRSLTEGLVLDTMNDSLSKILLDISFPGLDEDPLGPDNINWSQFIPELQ
The experiment in a line: FOXM1 protein levels by immunoblotting in solid cancer cell lines.
Experimental: Cell culture: Human cell lines LNCaP and 22Rv1 (human prostate carcinoma), OVCAR8 and ES-2 (High-grade serous ovarian cancer, HGSOC), HCT-116 and HCT-FET (human colorectal carcinoma), HCC-1143 (triple negative breast cancer (TNBC), TAMR (Tamoxifen resistant MCF7) human breast cancer, were provided from various investigators. LNCaP and 22Rv1 cell lines were cultured in RPMI-1640 with 2 mM L-Glutamine (Gibco; Thermo Fisher Scientific, Waltham, MA, USA). HCC-1143 cell lines were cultured in Iscove's Modified Dulbecco Medium (IMDM) with 2 mM L-Glutamine (Gibco; Thermo Fisher Scientific). OVCAR-8, ES-2, HCT-116, and HCT-FET cell lines were cultured in Dulbecco's Modified Eagle Medium (DMEM) with 4.5 g/L glucose and 4 mM L-Glutamine (Gibco; Thermo Fisher Scientific). For all cell lines, the growth media was supplemented with 10% Foetal Bovine Serum (FBS), penicillin (100 U/mL), and 100 μg/mL streptomycin (Gibco; Thermo Fisher Scientific). TAMR cells were routinely cultured in DMEM/F12 medium without phenol red (Gibco; Thermo Fisher Scientific), containing 1% charcoal-striped FBS, 2.5 mM L-Glutamine (Thermo Fisher Scientific), 6 ng/mL insulin (Millipore Sigma) and 50 nM 4-hydroxytamoxifen (4-OHT; Millipore Sigma). All cell lines were grown and maintained at 37° C. in a humidified incubator with 5% CO2. Sub-confluent cultures (70-80%) were split 1:5 using 0.25% Trypsin/EDTA (Millipore Sigma).
Drug treatment of cultured cells: After harvesting, cells were counted in presence of Trypan Blue (Thermo Fisher Scientific) and seeded onto tissue culture plates to achieve ~50% confluency. The next day, treatment of cells was performed by aspirating the nonadherent cells and growth medium and replacing it with the fresh one containing selected concentrations of drugs. For Tamoxifen based studies, the nonadherent cells and growth media was aspirated and replaced with the DMEM supplemented with 4.5 g/L glucose and 4 mM L-Glutamine, 10% FBS, penicillin (100 U/mL), 100 μg/mL streptomycin, 10 nM estrogen, and selected concentrations of drugs. […] Post-treatment at selected times, the cells were harvested, washed with ice-cold PBS and used for protein or RNA purification as described below.
Protein immunoblotting: Total protein was extracted using ice-cold radio-immunoprecipitation assay (RIPA) buffer (Millipore Sigma) supplemented with Halt protease- and phosphatise-inhibitor cocktails (Fisher Scientific), 2 mM sodium orthovanadate (New England Biolabs, Inc., USA), and 5 mM sodium fluoride (Millipore Sigma) according to the manufacturer's protocol. Protein content in each sample was estimated using Bio-Rad Protein Assay (Bio-Rad, USA). Equal amounts of protein (20-30 μg) were separated on hand-cast SDS/PAGE (6-12%) mini-protein gels and transferred to 0.2 μm Immobilon-Psq polyvinylidene difluoride (PVDF) transfer membrane (Millipore Sigma). Membranes were blocked with 4% bovine serum albumin (BSA; Millipore Sigma) in TRIS-buffered saline (TBS) with 0.1% Tween-20 (TBS-T, Thermo Fisher Scientific) and probed overnight at 4° C. with the primary antibodies (FOXM1, Cell Signaling Technology (CST), Inc., USA; Cleaved Caspase-3, CST; β-actin, Thermo Fisher Scientific) diluted according to the manufacturer's protocol. […] After incubating membranes with the secondary antibodies, the membranes were then washed three times for 10 min each with TBST. Protein bands were developed using SuperSignal™ West Pico PLUS Chemiluminescent Substrate (Thermo Fisher Scientific) and detected using ChemiDoc Imaging System (Bio-Rad).

The target in data set [3] is T1, FOXM1. The experiment in a line: FOXM1 protein levels by immunoblotting in leukemia/AML cell lines. It counts as cell-based. More on the design: Total protein samples obtain from treated cells were analyzed for FOXM1 protein levels via immunoblotting; endogenous in cells; host or cells: KG-1, HL-60, K562, THP-1 leukemia cell lines. The settings on record: KG-1 cells; for effect on FOXM1 protein levels suppressed by STL001: co-treatment with STL001, 24 h. The procedure: [a] Leukemia cells, KG-1, HL-60 and K562 were treated with increasing concentrations of STL427944 for 24 hrs. […] [b] THP1 and KG-1 cells were treated with indicated concentrations of venetoclax and STL427944 alone or in combination for 24 hrs. [c] KG-1 and K562 cells were treated with indicated concentrations of cytarabine and STL427944 alone or in combination for 24 hrs.
FIG. 8. STL427944 treatment of human leukemia cell lines suppress FOXM1 protein expression. (a) STL427944 treatment of human leukemia cell lines inhibit FOXM1 protein expression and sensitize cells to venetoclax treatment. […] (b) Stable shRNA-mediated FOXM1 knockdown prominently sensitizes KG-1 cells to cytotoxic effect of venetoclax. (c, d) combined treatment with STL427944 and venetoclax suppresses FOXM1 in KG-1 and THP-1 cells and synergistically promotes cytotoxic effects similarly to FOXM1 knockdown. Total protein was isolated from cells immediately after the treatment and analyzed via immunoblotting with FOXM1 antibodies). Apoptosis induction was estimated based on caspase-3 cleavage.
FIGS. 9A and 9B: Novel FOXM1 inhibitor STL001 sensitizes Leukemia cells to chemotherapy agents. [a] Structural formula of novel FOXM1 inhibitor STL001. [b] Leukemia cells, KG-1, HL-60, and K562 were treated with increasing concentrations of STL001 for 24 hrs. […] [c] KG-1 cells were treated with indicated concentrations of Laptomycin B, Chloroquine, and STL001 for 24 hrs. […] [d] KG-1, HL-60, and K562 cells were treated with indicated concentrations of venetoclax and STL001 alone or in combination for 24 hrs. [e] KG-1, HL-60, and K562 cells were treated with indicated concentrations of cytarabine and STL alone or in combination for 24 hrs.
FIGS. 13A-13H STL001 is a novel FOXM1 inhibitor that sensitizes leukemia cells to standard cytotoxic and bcl2 inhibitor therapies. FIG. 13A AML cell line KG-1 treated with precursor compound STL427944. FIG. 3B AML cell lines KG-1, HL-60, and K562 were treated with increasing concentrations of STL001 for 24 h. Total protein samples obtained from treated cells were analyzed for FOXM1 protein levels using immunoblotting; β-actin was used as the internal loading control. FIG. 13C KG-1, HL-60, and K562 cells were treated with indicated concentrations of venetoclax and STL001 alone or in combination for 24 h. FIG. 13D KG-1, HL-60, and K562 cells were treated with indicated concentrations of cytarabine and STL001 alone or in combination for 24 h. […] FIG. 13E KG-1 cells were treated with indicated concentrations of Leptomycin B, Chloroquine, and STL001 for 24 h. Total protein samples obtained from treated cells were analyzed for FOXM1 protein levels via immunoblotting; β-actin was used as an internal loading control. FIG. 13F KG-1 cell lines with shRNA knockdown of FOXM1 were treated with venetoclax and STL001 and compared to parental cells. FIG. 13G Real-time PCR-based expression profiling for canonical FOXM1 target genes was performed on primary AML mononuclear cells (n=5) treated ex vivo with STL001 5 μM for 24 h. Mean and standard error of the delta Ct for DMSO or treatment group are plotted for each gene. P-value is estimated by two-tailed paired t-test. Asterisks denote P<0.05. FIG. 13H Treatment of peripheral blood mononuclear cells with STL001 for 24 h followed by immunohistochemistry for FOXM1. Slides were scanned on an Aperio AT2 brightfield scanner and images were analyzed using HALO 2.0 software. Hematoxylin counterstain was used to segment nuclei within the ROIs and to establish an accurate cell count. Percent cells with nuclear FOXM1 expression compared between DMSO and STL001 treated cells. P-value is based on one-tailed paired t-test.
Background: A western blot detects proteins with antibodies after separation by electrophoresis.

The subject of a further data set is NPM1c mutant AML cells. The settings on record: cited from earlier work.
Data set [4] deals with KG-1, HL-60, K562, THP-1 cells. It counts as cell-based. The note with it: KG-1 cells.
The subject of another data set is HCC-1143 cells. The procedure:
(§1) FIG. 17. […] (A) Prostate cancer (22RV1 and LNCaP) cells were treated with indicated concentrations of paclitaxel alone or in combination with STL001 for 24 hrs. (B) Tamoxifen resistance MCF-7 breast cancer cells (TAM-R) were treated with indicated concentrations of Tamoxifen alone or in combination with STL001 for 24 hrs. In all cases, total protein samples were obtained from cells immediately after treatment and analyzed for FOXM1, cleaved caspase-3 levels via immunoblotting, β-actin was used as internal loading control (n=3). (C) Percent (%) dead cells in TAM-R cells treated with indicated concentrations of Tamoxifen alone or in combination with STL001 for 24 hrs. […] (F) HCC 143 cells with stable shRNA-mediated FOXM1 knockdown (KD) were treated with doxorubicin alone or in combination with STL001 for 24 hrs and compared to parental cells under the same treatment conditions. In all cases, total protein samples were obtained from cells immediately after treatment and analyzed for FOXM1, cleaved caspase-3 levels via immunoblotting, β-actin was used as internal loading control (n=3).
Stable FOXM1-expression knockdown in cancer cell: Cells were seeded on commercially available 12-well tissue culture plates to achieve ~40% confluency. […] Transduced cells were selected by their cultivation with puromycin (1.0 μg/mL) for 10 days and then maintained without puromycin as described above.

The subject of another data set is 22RV1, LNCaP cells. The procedure:
as §1

The next data set has as its system TAMR cells. It counts as cell-based. The procedure: as §1

`O=c1[nH]cc(F)c(=O)[nH]1` [5′FU, 5-fluorouracil]: the “cell death, chemotherapeutic alone” value in data set [1] was “without evident cell death”. Moreover, at FOXM1 [2] (HCT-116 and HCT-FET), the “FOXM1 level, chemotherapeutic alone” value is “FOXM1 upregulation”.
On to `CCN(CC)CCCC(C)Nc1ccnc2cc(Cl)ccc12` (centres unmarked) [Chloroquine], for which, on FOXM1 [3], the “effect on FOXM1 protein levels suppressed by STL001” value is “rescued FOXM1 protein levels”.
The same measure, in the same setting: the value for `CCC(=C/[C@H](C)C/C=C/C(C)=C/[C@@H](C)C(=O)[C@@H](C)[C@H](O)[C@@H](C)C/C(C)=C/C(=O)O)/C=C/[C@@H]1OC(=O)C=C[C@@H]1C` [Leptomycin B] was “rescued FOXM1 protein levels”.
Take `CC(C)N(C(=O)c1cc(F)ccc1Oc1cncnc1N1CC2(CCN(CC3CCC(NS(C)(=O)=O)CC3)CC2)C1)C(C)C` (centres unmarked) [VTP-50469]: the “leukemia development in the knock-in murine model” value with NPM1c mutant AML cells (knock-in murine model) was “prevent leukemia development”. Besides, the “effect on NPM1c mutant AML cells in xenografts” value in the data set on NPM1c mutant AML cells (oral inhibitor, xenografts) is “able to eradicate NPM1c mutant AML cells in xenografts”.
For the molecule `CC(C)C[C@H](NC(=O)[C@H](Cc1ccccc1)NC(=O)c1cnccn1)B(O)O` [bortezomib], in data set [4], the “apoptosis (caspase-3 cleavage) in combination with cytarabine” value was “synergistic induction of apoptosis”. On FOXM1 [3], the FOXM1 level result was “down-regulation of FOXM1”.
Turning to `COc1cccc2c1C(=O)c1c(O)c3c(c(O)c1C2=O)C[C@@](O)(C(=O)CO)C[C@@H]3O[C@H]1C[C@H](N)[C@H](O)[C@H](C)O1` [doxorubicin], in the data set with HCC-1143 cells, the “cytotoxic effects, DNA-damaging agent alone” value is “without showing prominent cytotoxic effects”. For the same molecule, the “cellular FOXM1 protein, DNA-damaging agent alone” value on FOXM1 [2] (HCC-1143, sub-lethal concentrations) was “significantly higher levels of cellular FOXM1 protein”. Also, the “FOXM1 protein abundance, chemotherapeutic alone” value at FOXM1 [2] (OVCAR-8, ES-2, sub-lethal concentrations) is recorded as “significant increase in FOXM1 protein abundance”.
Take `CC(=O)O[C@H]1C(=O)[C@@]2(C)[C@H]([C@H](OC(=O)c3ccccc3)[C@]3(O)C[C@H](OC(=O)[C@H](O)[C@@H](NC(=O)c4ccccc4)c4ccccc4)C(C)=C1C3(C)C)[C@]1(OC(C)=O)CO[C@@H]1C[C@@H]2O` [paclitaxel]: the “cytotoxic effects, chemotherapeutic alone” value in the data set with 22RV1, LNCaP cells is given as “without showing any cytotoxic effects”. The “cellular FOXM1 protein levels, chemotherapeutic alone” value on FOXM1 [2] (22RV1, LNCaP, sublethal concentrations) was “prominent increase in cellular FOXM1 protein levels”.
Turning to `CC/C(=C(\c1ccccc1)c1ccc(OCCN(C)C)cc1)c1ccccc1` [tamoxifen], the “cell death, tamoxifen alone” value with TAMR cells is “without prominent cell death induction”. Moreover, the “FOXM1 level, tamoxifen alone” value on FOXM1 [2] (TAMR cells) is reported as “FOXM1 upregulation”.
Turning to `C=C(NC(=O)C(=C)NC(=O)c1csc(C2=N[C@@H]3c4csc(n4)[C@H]4NC(=O)c5csc(n5)[C@H]([C@](C)(O)[C@@H](C)O)NC(=O)[C@H]5CSC(=N5)/C(=C/C)NC(=O)[C@H]([C@@H](C)O)NC(=O)c5csc(n5)[C@]3(CC2)NC(=O)[C@H](C)NC(=O)C(=C)NC(=O)[C@H](C)NC(=O)[C@H]([C@@H](C)CC)N[C@@H]2C=Cc3c([C@H](C)O)cc(nc3[C@H]2O)C(=O)O[C@@H]4C)n1)C(N)=O` [thiostrepton], the “apoptosis (caspase-3 cleavage) in combination with cytarabine” value in data set [4] is given as “synergistic induction of apoptosis”. Further, the FOXM1 level result at FOXM1 [3] is listed as “down-regulation of FOXM1”.

The values above are taken from patent US20260217691A1, “FOXM1 INHIBITORS AND THEIR USE IN TREATING CANCERS” (THE BOARD OF TRUSTEES OF THE UNIVERSITY OF ILLINOIS, priority 2022, published 2026).
